Measured values reported in patent publication US12187713B2, “Immunomodulators, compositions and methods thereof” (Betta Pharmaceuticals Co., Ltd, priority 2019, dated 2025).

Target: PD-1/PD-L1 (Homo sapiens (Human), UniProt Q9NZQ7)
Assay: PD-1/PD-L1 Binding Assay (Alphascreen)
In short: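 PD-1/PD-L1 binding detected by anti-6×His acceptor and streptavidin donor beads after 120 min in the dark at 25 °C. Beforehand, the two proteins were incubated 15 min at 25 °C with inhibitor at 0.015–300 nM (1% DMSO). IC50 comes from a log concentration–response curve.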

Chain of PD-1/PD-L1 (Q9NZQ7 19-238): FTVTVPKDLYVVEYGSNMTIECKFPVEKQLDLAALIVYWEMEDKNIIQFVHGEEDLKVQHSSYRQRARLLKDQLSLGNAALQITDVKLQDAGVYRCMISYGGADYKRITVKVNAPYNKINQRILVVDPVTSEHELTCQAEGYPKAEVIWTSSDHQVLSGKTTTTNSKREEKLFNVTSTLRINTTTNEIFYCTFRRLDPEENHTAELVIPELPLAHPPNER

Row | Compound | IC50 (range symbols) | IC50 (numeric values)
1 | Cc1c(-c2nc3cc(CN4CCC[C@H]4C(=O)O)c(OC(F)F)cc3o2)cccc1-c1cccc(-c2nc3cc(CN4CC(C)(CN)C4)cc(C#N)c3o2)c1C [Example 161, ((2-(3′-(5-((3-(aminomethyl)-3-methylazetidin-1-yl)methyl)-7-cyanobenzo[d]oxazol-2-yl)-2,2′-dimethyl-[1,1′-biphenyl]-3-yl)-6-(difluoromethoxy)benzo[d]oxazol-5-yl)methyl)-L-proline] | 0.1 to 5 nM | –
2 | Cc1c(-c2nc3cc(CNCCO)c(OC(F)F)cc3o2)cccc1-c1cccc(-c2nc3cc(CN4CCC[C@H]4C(=O)O)c(OC(F)F)cc3o2)c1C [Example 7, ((6-(difluoromethoxy)-2-(3′-(6-(difluoromethoxy)-5-(((2-hydroxyethyl)amino)methyl)benzo[d]oxazol-2-yl)-2,2′-dimethyl-[1,1′-biphenyl]-3-yl)benzo[d]oxazol-5-yl)methyl)-L-proline] | – | 0.61 nM
3 | Cc1c(-c2ccc(CN3CCC(NC(N)=O)C3)c(F)c2)cccc1-c1cccc(-c2nc3cc(CN4CCC[C@H]4C(=O)O)c(OC(F)F)cc3o2)c1C (stereo partly drawn) [Example 260, ((6-(difluoromethoxy)-2-(3″-fluoro-2,2′-dimethyl-4″-((3-ureidopyrrolidin-1-yl)methyl)-[1,1′:3′,1″-terphenyl]-3-yl)benzo[d]oxazol-5-yl)methyl)-L-proline] | 5 to 50 nM | –
4 | Cc1c(-c2ccc(CN3CCCC3)c(Cl)c2)cccc1-c1cccc(-c2nc3cc(CN4CCC[C@H]4C(=O)O)c(OC(F)F)cc3o2)c1C [Example 219, ((2-(3″-chloro-2,2′-dimethyl-4″-(pyrrolidin-1-ylmethyl)-[1,1′:3′,1″-terphenyl]-3-yl)-6-(difluoromethoxy)benzo[d]oxazol-5-yl)methyl)proline] | 0.1 to 5 nM | –
5 | Cc1c(-c2nc3cc(CN4CCC[C@H]4C(=O)O)c(OC(F)F)cc3o2)cccc1-c1cccc(-c2nc3cc(CN4CCCC4)cnc3o2)c1C [Example 112, ((6-(difluoromethoxy)-2-(2,2′-dimethyl-3′-(6-(pyrrolidin-1-ylmethyl)oxazolo[5,4-b]pyridin-2-yl)-[1,1′-biphenyl]-3-yl)benzo[d]oxazol-5-yl)methyl)-L-proline] | 0.1 to 5 nM | –
6 | Cc1c(-c2nc3cc(CNCCO)c(OCc4cncc(S(C)(=O)=O)c4)cc3o2)cccc1-c1cccc(-c2nc3cc(CN4CCC[C@H]4C(=O)O)c(OC(F)F)cc3o2)c1C [Example 121, ((6-(difluoromethoxy)-2-(3′-(5-(((2-hydroxyethyl)amino)methyl)-6-((5-(methylsulfonyl)pyridin-3-yl)methoxy)benzo[d]oxazol-2-yl)-2,2′-dimethyl-[1,1′-biphenyl]-3-yl)benzo[d]oxazol-5-yl)methyl)-L-proline] | – | 0.6 nM
7 | Cc1c(-c2nc3cc(CN4CC[C@H](C(=O)O)C4)c(OC(F)F)cc3o2)cccc1-c1cccc(-c2nc3cc(CN4CC[C@H](C)C4)cc(C#N)c3o2)c1C [Example 259, (S)-1-((2-(3′-(7-cyano-5-(((S)-3-methylpyrrolidin-1-yl)methyl)benzo[d]oxazol-2-yl)-2,2′-dimethyl-[1,1′-biphenyl]-3-yl)-6-(difluoromethoxy)benzo[d]oxazol-5-yl)methyl)pyrrolidine-3-carboxylic acid] | 0.1 to 5 nM | –
8 | Cc1c(-c2ccc(NC(=N)N)cc2)cccc1-c1cccc(-c2nc3cc(CN4CCC[C@H]4C(=O)O)c(OC(F)F)cc3o2)c1C [Example 225, ((6-(difluoromethoxy)-2-(4″-guanidino-2,2′-dimethyl-[1,1′:3,1″-terphenyl]-3-yl)benzo[d]oxazol-5-yl)methyl)-L-proline] | – | 2 nM
9 | CCN(CC)C1CN(Cc2cc3nc(-c4cccc(-c5cccc(-c6nc7cc(CN8CCC[C@H]8C(=O)O)c(OC(F)F)cc7o6)c5C)c4C)oc3cc2OC(F)F)C1 [Example 68, ((2-(3′-(5-((3-(diethylamino)azetidin-1-yl)methyl)-6-(difluoromethoxy)benzo[d]oxazol-2-yl)-2,2′-dimethyl-[1,1′-biphenyl]-3-yl)-6-(difluoromethoxy)benzo[d]oxazol-5-yl)methyl)-L-proline] | – | 2.4 nM
10 | Cc1c(-c2nc3cc(CN4CCC[C@@H]4C(=O)O)c(OC(F)F)cc3o2)cccc1-c1cccc(-c2nc3cc(CN4CC(C)(C)C4)c(OC(F)F)cc3o2)c1C#N [Example 87, ((2-(2′-cyano-3′-(6-(difluoromethoxy)-5-((3,3-dimethylazetidin-1-yl)methyl)benzo[d]oxazol-2-yl)-2-methyl-[1,1′-biphenyl]-3-yl)-6-(difluoromethoxy)benzo[d]oxazol-5-yl)methyl)-D-proline] | 0.1 to 5 nM | –
11 | Cc1c(-c2nc3cc(CN4CCC[C@H]4C(=O)O)c(OC(F)F)cc3o2)cccc1-c1cccc(-c2ccc(CNC[C@@H]3CCC(=O)N3)cc2)c1F [Example 215, ((6-(difluoromethoxy)-2-(2′-fluoro-2-methyl-4″- (((((S)-5-oxopyrrolidin-2-yl)methyl)amino)methyl)-[1,1′:3′,1″- terphenyl]-3-yl)benzo[d]oxazol-5-yl)methyl)-L-proline] | – | 2.8 nM
12 | Cc1c(-c2nc3c(o2)CN(C)CC3)cccc1-c1cccc(-c2nc3cc(CN4CCC[C@H]4C(=O)O)c(OC(F)F)cc3o2)c1C [Example 188, ((6-(difluoromethoxy)-2-(2,2′-dimethyl-3′-(5-methyl-4,5,6,7-tetrahydrooxazolo[5,4-c]pyridin-2-yl)-[1,1′-biphenyl]-3-yl)benzo[d]oxazol-5-yl)methyl)-L-proline] | 0.1 to 5 nM | –
13 | COc1nc(-c2cccc(-c3cccc(-c4nc5cc(CN6CCC[C@H]6C(=O)O)c(OC(F)F)cc5o4)c3C)c2Cl)cnc1CNCC1CCC(=O)N1 (stereo partly drawn) [Example 287, ((2-(2′-chloro-3′-(6-methoxy-5-((((5-oxopyrrolidin-2-yl)methyl)amino)methyl)pyrazin-2-yl)-2-methyl-[1,1′-biphenyl]-3-yl)-6-(difluoromethoxy)benzo[d]oxazol-5-yl)methyl)-L-proline] | 0.1 to 5 nM | –
14 | Cc1c(-c2nc3cc(CN4CC(F)C4)c(OC(F)F)cc3o2)cccc1-c1cccc(-c2nc3cc(CN4CCC[C@H]4C(=O)O)c(OC(F)F)cc3o2)c1C [Example 9, ((6-(difluoromethoxy)-2-(3′-(6-(difluoromethoxy)-5-((3-fluoroazetidin-1-yl)methyl)benzo[d]oxazol-2-yl)-2,2′-dimethyl-[1,1′-biphenyl]-3-yl)benzo[d]oxazol-5-yl)methyl)-L-proline] | – | 18 nM

Other lines, results leading:

Row | IC50 (range symbols) | IC50 (numeric values) | Compound
15 | 0.1 to 5 nM | – | Cc1c(-c2nc3cc(CN4CCC4CO)ccc3o2)cccc1-c1cccc(-c2nc3cc(CN4CCC[C@H]4C(=O)O)c(OC(F)F)cc3o2)c1C (stereo partly drawn) [Example 105, ((6-(difluoromethoxy)-2-(3′-(5-((2-(hydroxymethyl)azetidin-1-yl)methyl)benzo[d]oxazol-2-yl)-2,2′-dimethyl-[1,1′-biphenyl]-3-yl)benzo[d]oxazol-5-yl)methyl)-L-proline]
16 | – | 7.8 nM | Cc1c(-c2ccc(CN3CCCC3)c(OC(F)(F)F)c2)cccc1-c1cccc(-c2nc3cc(CN4CCC[C@H]4C(=O)O)c(OC(F)F)cc3o2)c1C [Example 232, ((6-(difluoromethoxy)-2-(2,2′-dimethyl-4″- (pyrrolidin-1-ylmethyl)-3″-(trifluoromethoxy)-[1,1′:3′,1″-terphenyl]-3-yl)benzo[d]oxazol-5-yl)methyl)-L-proline]
17 | 0.1 to 5 nM | – | Cc1c(-c2nc3cc(CN4CCC[C@H]4C(=O)O)c(OC(F)F)cc3o2)cccc1-c1cccc(-c2nc3cc(CN4CCC(C(N)=O)C4)cc(C#N)c3o2)c1C (stereo partly drawn) [Example 315, ((2-(3′-(5-((3-carbamoylpyrrolidin-1-yl)methyl)-7-cyanobenzo [d]oxazol-2-yl)-2,2′-dimethyl-[1,1′-biphenyl]-3-yl)-6-(difluoromethoxy)benzo[d]oxazol-5-yl)methyl)-L-proline]
18 | – | 10 nM | Cc1c(-c2nc3cc(CN4CC5CC(=O)CC4C5)c(OC(F)F)cc3o2)cccc1-c1cccc(-c2nc3cc(CN4CCC[C@H]4C(=O)O)c(OC(F)F)cc3o2)c1C (stereo partly drawn) [Example 75, ((6-(difluoromethoxy)-2-(3′-(6-(difluoromethoxy)-5-((3-oxo-6-azabicyclo [3.2.1]octan-6-yl)methyl)benzo[d]oxazol-2-yl)-2,2′-dimethyl-[1,1′-biphenyl]-3-yl)benzo[d]oxazol-5-yl)methyl)-L-proline]
19 | 0.1 to 5 nM | – | CC[C@@H]1CCN1Cc1cc2nc(-c3cccc(-c4cccc(-c5nc6cc(CN7CCC[C@H]7C(=O)O)c(OC(F)F)cc6o5)c4C)c3C)oc2cc1OC(F)F [Example 42, ((6-(difluoromethoxy)-2-(3′-(6-(difluoromethoxy)-5-(((R)-2-ethylazetidin-1-yl)methyl)benzo[d]oxazol-2-yl)-2,2′-dimethyl-[1,1′-biphenyl]-3-yl)benzo[d]oxazol-5-yl)methyl)-L-proline]
20 | 0.1 to 5 nM | – | Cc1c(-c2nc3cc(CN4CC[C@H](C(=O)O)C4)c(OC(F)F)cc3o2)cccc1-c1cccc(-c2nc3cc(CN4CCC(C)C4)cc(C(F)(F)F)c3o2)c1C (stereo partly drawn) [Example 92, (3S)-1-((6-(difluoromethoxy)-2-(2,2′-dimethyl-3′-(5-((3-methylpyrrolidin-1-yl)methyl)-7-(trifluoromethyl)benzo [d]oxazol-2-yl)-[1,1′-biphenyl]-3-yl)benzo[d]oxazol-5-yl)methyl)pyrrolidine-3-carboxylic acid]
21 | 0.1 to 5 nM | – | Cc1c(-c2nc3cc(CN4CC(C)(C#N)C4)c(OC(F)F)cc3o2)cccc1-c1cccc(-c2nc3cc(CN4CCC[C@H]4C(=O)O)c(OC(F)F)cc3o2)c1C [Example 79, ((2-(3′-(5-((3-cyano-3-methylazetidin-1-yl)methyl)-6-(difluoromethoxy)benzo[d]oxazol-2-yl)-2,2′-dimethyl-[1,1′-biphenyl]-3-yl)-6-(difluoromethoxy)benzo[d]oxazol-5-yl)methyl)-L-proline]
22 | 0.1 to 5 nM | – | CCNCc1cc2nc(-c3cccc(-c4cccc(-c5nc6cc(CN7CCC[C@H]7C(=O)O)c(OC(F)F)cc6o5)c4C)c3C)oc2cc1OCc1cncc(S(C)(=O)=O)c1 [Example 122, ((6-(difluoromethoxy)-2-(3′-(5-((ethylamino)methyl)-6-((5-(methylsulfonyl)pyridin-3-yl)methoxy)benzo[d]oxazol-2-yl)-2,2′-dimethyl-[1,1′-biphenyl]-3-yl)benzo[d]oxazol-5-yl)methyl)-L-proline]
